From PubChem BioAssay (NCI)
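Interpolation was linear, between the two tested concentrations surrounding the appropriate level; five concentrations were tested over 48 hours in 96-well plates. TGI marks complete inhibition of growth.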

What was measured:
Assay in all cases: NCI anticancer screen, dose series, 48 h
786-0 renal = test system: 786-0 renal
A498 renal = test system: A498 renal
A549 NSCLC = test system: A549 NSCLC
ACHN renal = test system: ACHN renal
CAKI-1 renal = test system: CAKI-1 renal
CCRF-CEM leukemia = test system: CCRF-CEM leukemia
COLO 205 colon = test system: COLO 205 colon
DLD-1 colon = test system: DLD-1 colon
DMS 114 small cell lung = test system: DMS 114 small cell lung
DMS 273 small cell lung = test system: DMS 273 small cell lung
EKVX NSCLC = test system: EKVX NSCLC
HCC-2998 colon = test system: HCC-2998 colon
HCT-116 colon = test system: HCT-116 colon
HCT-15 colon = test system: HCT-15 colon
HL-60(TB) leukemia = test system: HL-60(TB) leukemia
HOP-18 NSCLC = test system: HOP-18 NSCLC
HOP-62 NSCLC = test system: HOP-62 NSCLC
HOP-92 NSCLC = test system: HOP-92 NSCLC
HT29 colon = test system: HT29 colon
IGROV1 ovarian = test system: IGROV1 ovarian
K-562 leukemia = test system: K-562 leukemia
KM12 colon = test system: KM12 colon
KM20L2 colon = test system: KM20L2 colon
LXFL 529 NSCLC = test system: LXFL 529 NSCLC
M14 melanoma = test system: M14 melanoma
M19-MEL melanoma = test system: M19-MEL melanoma
MALME-3M melanoma = test system: MALME-3M melanoma
MOLT-4 leukemia = test system: MOLT-4 leukemia
NCI-H226 lung = test system: NCI-H226 lung
NCI-H23 lung = test system: NCI-H23 lung
NCI-H460 lung = test system: NCI-H460 lung
NCI-H522 lung = test system: NCI-H522 lung
OVCAR-3 ovarian = test system: OVCAR-3 ovarian
OVCAR-4 ovarian = test system: OVCAR-4 ovarian
OVCAR-5 ovarian = test system: OVCAR-5 ovarian
OVCAR-8 ovarian = test system: OVCAR-8 ovarian
RPMI-8226 leukemia = test system: RPMI-8226 leukemia
RXF-631 renal = test system: RXF-631 renal
SF-268 CNS = test system: SF-268 CNS
SF-295 CNS = test system: SF-295 CNS
SF-539 CNS = test system: SF-539 CNS
SK-MEL-2 melanoma = test system: SK-MEL-2 melanoma
SK-MEL-28 melanoma = test system: SK-MEL-28 melanoma
SK-MEL-5 melanoma = test system: SK-MEL-5 melanoma
SK-OV-3 ovarian = test system: SK-OV-3 ovarian
SN12C renal = test system: SN12C renal
SNB-75 CNS = test system: SNB-75 CNS
SNB-78 CNS = test system: SNB-78 CNS
SR leukemia = test system: SR leukemia
TK-10 renal = test system: TK-10 renal
U251 CNS = test system: U251 CNS
UACC-257 melanoma = test system: UACC-257 melanoma
UACC-62 melanoma = test system: UACC-62 melanoma
UO-31 renal = test system: UO-31 renal
LOX IMVI melanoma = test system: LOX IMVI melanoma
RXF 393 renal = test system: RXF 393 renal
SNB-19 CNS = test system: SNB-19 CNS
SW-620 colon = test system: SW-620 colon

NCCCNC(=O)c1csc(NC(=O)c2csc(NC(=O)CCCN)n2)n1
TGI (786-0 renal): > 100 µM | TGI (A498 renal): > 100 µM | TGI (A549 NSCLC): > 100 µM | TGI (ACHN renal): > 100 µM | TGI (CAKI-1 renal): > 100 µM | TGI (CCRF-CEM leukemia): > 100 µM | TGI (COLO 205 colon): > 100 µM | TGI (DLD-1 colon): > 100 µM | TGI (DMS 114 small cell lung): > 100 µM | TGI (DMS 273 small cell lung): > 100 µM | TGI (EKVX NSCLC): > 100 µM | TGI (HCC-2998 colon): > 100 µM | TGI (HCT-116 colon): > 100 µM | TGI (HCT-15 colon): > 100 µM | TGI (HL-60(TB) leukemia): > 100 µM | TGI (HOP-18 NSCLC): > 100 µM | TGI (HOP-62 NSCLC): > 100 µM | TGI (HOP-92 NSCLC): > 100 µM | TGI (HT29 colon): > 100 µM | TGI (IGROV1 ovarian): > 100 µM | TGI (K-562 leukemia): > 100 µM | TGI (KM12 colon): > 100 µM | TGI (KM20L2 colon): > 100 µM | TGI (LXFL 529 NSCLC): > 100 µM | TGI (M14 melanoma): > 100 µM | TGI (M19-MEL melanoma): > 100 µM | TGI (MALME-3M melanoma): > 100 µM | TGI (MOLT-4 leukemia): > 100 µM | TGI (NCI-H226 lung): > 100 µM | TGI (NCI-H23 lung): > 100 µM | TGI (NCI-H460 lung): > 100 µM | TGI (NCI-H522 lung): > 100 µM | TGI (OVCAR-3 ovarian): > 100 µM | TGI (OVCAR-4 ovarian): 44 µM | TGI (OVCAR-5 ovarian): > 100 µM | TGI (OVCAR-8 ovarian): > 100 µM | TGI (RPMI-8226 leukemia): > 100 µM | TGI (RXF-631 renal): > 100 µM | TGI (SF-268 CNS): > 100 µM | TGI (SF-295 CNS): > 100 µM | TGI (SF-539 CNS): > 100 µM | TGI (SK-MEL-2 melanoma): > 100 µM | TGI (SK-MEL-28 melanoma): > 100 µM | TGI (SK-MEL-5 melanoma): > 100 µM | TGI (SK-OV-3 ovarian): > 100 µM | TGI (SN12C renal): > 100 µM | TGI (SNB-75 CNS): > 100 µM | TGI (SNB-78 CNS): > 100 µM | TGI (SR leukemia): > 100 µM | TGI (TK-10 renal): > 100 µM | TGI (U251 CNS): > 100 µM | TGI (UACC-257 melanoma): > 100 µM | TGI (UACC-62 melanoma): > 100 µM | TGI (UO-31 renal): > 100 µM

CCCCCCCCCCCCC(=O)CCCCC(=O)O
TGI (786-0 renal): 84.7 µM | TGI (A498 renal): 36.3 µM | TGI (A549 NSCLC): 44.6 µM | TGI (ACHN renal): 73.7 µM | TGI (CAKI-1 renal): > 100 µM | TGI (CCRF-CEM leukemia): > 100 µM | TGI (COLO 205 colon): 32.7 µM | TGI (DLD-1 colon): 38.1 µM | TGI (DMS 114 small cell lung): 42 µM | TGI (DMS 273 small cell lung): > 100 µM | TGI (EKVX NSCLC): > 100 µM | TGI (HCT-116 colon): 54.6 µM | TGI (HL-60(TB) leukemia): 33.4 µM | TGI (HOP-18 NSCLC): 59.3 µM | TGI (HOP-62 NSCLC): 41.9 µM | TGI (HOP-92 NSCLC): 41.5 µM | TGI (HT29 colon): 30.7 µM | TGI (IGROV1 ovarian): 35.3 µM | TGI (K-562 leukemia): 39.8 µM | TGI (KM12 colon): 29.5 µM | TGI (LOX IMVI melanoma): 46.6 µM | TGI (LXFL 529 NSCLC): 35.3 µM | TGI (M14 melanoma): 33.6 µM | TGI (M19-MEL melanoma): 38.9 µM | TGI (MALME-3M melanoma): 43.6 µM | TGI (MOLT-4 leukemia): 35.7 µM | TGI (NCI-H226 lung): 59.1 µM | TGI (NCI-H23 lung): > 100 µM | TGI (NCI-H460 lung): 39.1 µM | TGI (NCI-H522 lung): 42.1 µM | TGI (OVCAR-3 ovarian): > 100 µM | TGI (OVCAR-4 ovarian): > 100 µM | TGI (OVCAR-5 ovarian): 35.8 µM | TGI (OVCAR-8 ovarian): 39.7 µM | TGI (RPMI-8226 leukemia): 40.8 µM | TGI (RXF 393 renal): > 100 µM | TGI (RXF-631 renal): 38.6 µM | TGI (SF-268 CNS): 71.6 µM | TGI (SF-295 CNS): 51.2 µM | TGI (SF-539 CNS): 36.6 µM | TGI (SK-MEL-2 melanoma): 47.4 µM | TGI (SK-MEL-28 melanoma): 46.5 µM | TGI (SK-MEL-5 melanoma): 34.1 µM | TGI (SK-OV-3 ovarian): > 100 µM | TGI (SN12C renal): 55.8 µM | TGI (SNB-19 CNS): > 100 µM | TGI (SNB-75 CNS): 71.1 µM | TGI (SNB-78 CNS): > 100 µM | TGI (SR leukemia): 47 µM | TGI (SW-620 colon): > 100 µM | TGI (TK-10 renal): > 100 µM | TGI (U251 CNS): 79 µM | TGI (UACC-257 melanoma): > 100 µM | TGI (UACC-62 melanoma): 36.1 µM | TGI (UO-31 renal): 60 µM

Cn1c(C2CCCc3c2c2ccccc2n3C)cc2ccccc21 (stereo not given)
TGI (786-0 renal): > 318 µM | TGI (A549 NSCLC): > 318 µM | TGI (ACHN renal): > 318 µM | TGI (CAKI-1 renal): > 318 µM | TGI (CCRF-CEM leukemia): > 318 µM | TGI (COLO 205 colon): > 318 µM | TGI (DLD-1 colon): > 318 µM | TGI (DMS 114 small cell lung): > 318 µM | TGI (DMS 273 small cell lung): > 318 µM | TGI (EKVX NSCLC): > 318 µM | TGI (HCC-2998 colon): > 318 µM | TGI (HCT-116 colon): > 318 µM | TGI (HCT-15 colon): > 318 µM | TGI (HL-60(TB) leukemia): > 318 µM | TGI (HOP-18 NSCLC): > 318 µM | TGI (HOP-62 NSCLC): > 318 µM | TGI (HOP-92 NSCLC): 299 µM | TGI (HT29 colon): > 318 µM | TGI (IGROV1 ovarian): > 318 µM | TGI (K-562 leukemia): > 318 µM | TGI (KM12 colon): > 318 µM | TGI (KM20L2 colon): > 318 µM | TGI (LOX IMVI melanoma): > 318 µM | TGI (LXFL 529 NSCLC): > 318 µM | TGI (M19-MEL melanoma): > 318 µM | TGI (MALME-3M melanoma): > 318 µM | TGI (MOLT-4 leukemia): > 318 µM | TGI (NCI-H226 lung): > 318 µM | TGI (NCI-H23 lung): > 318 µM | TGI (NCI-H460 lung): > 318 µM | TGI (NCI-H522 lung): 142 µM | TGI (OVCAR-3 ovarian): > 318 µM | TGI (OVCAR-5 ovarian): > 318 µM | TGI (OVCAR-8 ovarian): > 318 µM | TGI (RXF 393 renal): > 318 µM | TGI (RXF-631 renal): > 318 µM | TGI (SF-268 CNS): > 318 µM | TGI (SF-295 CNS): > 318 µM | TGI (SF-539 CNS): > 318 µM | TGI (SK-MEL-2 melanoma): > 318 µM | TGI (SK-MEL-28 melanoma): > 318 µM | TGI (SK-MEL-5 melanoma): > 318 µM | TGI (SK-OV-3 ovarian): > 318 µM | TGI (SN12C renal): > 318 µM | TGI (SNB-19 CNS): > 318 µM | TGI (SR leukemia): > 318 µM | TGI (SW-620 colon): > 318 µM | TGI (TK-10 renal): > 318 µM | TGI (U251 CNS): > 318 µM | TGI (UACC-257 melanoma): > 318 µM | TGI (UACC-62 melanoma): > 318 µM
